In patent publication US9409915B2, “Substituted aza-bicyclic imidazole derivatives useful as TRPM8 receptor modulators” (Janssen Pharmaceutica NV, priority 2010, dated 2016):
Where a name gives a salt, the structure may show the parent alone. Read-outs that look alike come from different tables or passages of the source.

Molecular target: canine TRPM8 (Canis lupus familiaris, UniProt Q1A7N1)
Assay: In vitro canine TRPM8 functional assay (Ca2+-sensitive fluorescent dye, icilin activation)
Format: cell-based
Description: The functional activity of representative compounds of the formula (I) of the present invention was quantified by measuring changes in intracellular calcium concentration using a Ca^2+-sensitive fluorescent dye. The changes in fluorescent signal were monitored by a fluorescence plate reader, either a FLIPR™ (Molecular Devices) or FDSS (Hamamatsu).
HEK293 cells stably expressing canine TRPM8 were routinely grown as monolayers in Dulbecco's minimum essential medium supplemented with 10% FBS, 2 mM L-glutamine, 100 units/mL penicillin, 100 ug/mL streptomycin and 400 μg/mL G418. Cells were maintained in 5% CO2 at 37° C. At 24 hr prior to assay, cells were seeded in black wall, clear-base poly-D-lysine coated 384-well plates (BD Biosciences, NJ, USA) at a density of 5,000 cells per well in culture medium and grown overnight in 5% CO2 at 37° C. On assay day, growth media was removed, and cells were loaded with Calcium 3 Dye (Molecular Devices) for 35 min at 37° C., under 5% CO2 and then incubated for 25 min at room temperature and atmosphere. Subsequently, cells were tested for agonist-induced increases in intracellular Ca^2+ levels using FLIPR™ or FDSS. Cells were treated with compounds of the formula (I) at varying concentrations and intracellular Ca^2+ was measured for 5 min prior to the addition of icilin to each well to achieve a final concentration that produces an approximately 80% maximal response.
Maximal fluorescence intensity (FI) achieved upon addition of icilin was exported from the FLIPR™ or FDSS software and further analyzed using GraphPad Prism 3.02 (Graph Pad Software Inc., CA, U.S.A.). Basal FI was subtracted prior to normalizing data to percent of maximal response. Curves were generated using the average of quadruplicate wells for each data point using nonlinear regression of either sigmoidal dose response or sigmoidal dose response (variable slope). Finally, the EC50 and IC50 values were calculated with the best-fit curve determined by GraphPad Prism

[1] = 0.2 μM compound, HEK293 cells stably expressing canine TRPM8, icilin-induced Ca2+ response
[2] = HEK293 cells stably expressing canine TRPM8, icilin-induced Ca2+ response, eight-point concentration-response
[3] = HEK293, 0.2 μM compound, HEK293 cells stably expressing canine TRPM8, icilin-induced Ca2+ response

Sequence of canine TRPM8 (Q1A7N1 1-1104): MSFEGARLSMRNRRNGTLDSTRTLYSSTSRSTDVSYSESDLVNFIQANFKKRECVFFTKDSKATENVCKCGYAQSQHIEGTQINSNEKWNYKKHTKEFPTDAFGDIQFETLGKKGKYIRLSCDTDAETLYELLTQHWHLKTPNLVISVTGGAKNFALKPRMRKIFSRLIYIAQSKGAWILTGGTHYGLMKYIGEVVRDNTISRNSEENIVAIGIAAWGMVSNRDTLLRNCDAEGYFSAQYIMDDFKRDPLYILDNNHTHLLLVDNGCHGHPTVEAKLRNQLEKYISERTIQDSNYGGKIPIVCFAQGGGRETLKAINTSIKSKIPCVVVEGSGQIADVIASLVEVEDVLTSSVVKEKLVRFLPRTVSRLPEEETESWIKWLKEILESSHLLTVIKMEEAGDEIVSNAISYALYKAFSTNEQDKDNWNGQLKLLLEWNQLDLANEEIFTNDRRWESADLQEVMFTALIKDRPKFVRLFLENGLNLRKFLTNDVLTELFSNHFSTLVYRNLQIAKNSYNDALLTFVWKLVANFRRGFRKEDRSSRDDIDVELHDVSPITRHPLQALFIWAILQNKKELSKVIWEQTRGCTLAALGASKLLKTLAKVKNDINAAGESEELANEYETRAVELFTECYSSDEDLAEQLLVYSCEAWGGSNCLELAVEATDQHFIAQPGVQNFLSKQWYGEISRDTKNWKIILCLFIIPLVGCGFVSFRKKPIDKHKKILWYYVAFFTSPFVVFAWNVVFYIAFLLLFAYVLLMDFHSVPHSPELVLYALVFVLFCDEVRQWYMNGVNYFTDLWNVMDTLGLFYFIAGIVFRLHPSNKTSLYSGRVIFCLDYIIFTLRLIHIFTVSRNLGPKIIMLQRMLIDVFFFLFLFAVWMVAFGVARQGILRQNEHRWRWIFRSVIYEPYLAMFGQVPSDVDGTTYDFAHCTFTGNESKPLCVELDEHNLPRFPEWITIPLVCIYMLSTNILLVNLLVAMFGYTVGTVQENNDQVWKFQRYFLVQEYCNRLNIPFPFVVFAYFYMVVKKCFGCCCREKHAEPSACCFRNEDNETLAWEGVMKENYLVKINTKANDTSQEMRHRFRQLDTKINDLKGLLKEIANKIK

Question: How did the inhibition at 0.2 µM [1] turn out when `COCCOc1cc(-c2ccccc2C(F)(F)F)nc2nc(-c3cc(C(C)(C)C)nn3C)[nH]c12` [Compound 112, 2-(5-tert-Butyl-2-methyl-2H-pyrazol-3-yl)-7-(2-methoxy-ethoxy)-5-(2-trifluoromethyl-phenyl)-1H-imidazo[4,5-b]pyridine methanesulfonic acid salt] was run?
Answer: 98%

Question: And the IC50 [2]?
Answer: 19 nM

Question: Which results are given for `Cn1nc(C(C)(C)C)c(Cl)c1-c1nc2cc(-c3ccccc3Cl)nc(OCCN3CCOCC3)c2[nH]1` [Compound 54, 2-(5-tert-Butyl-4-chloro-2-methyl-2H-pyrazol-3-yl)-6-(2-chloro-phenyl)-4-(2-morpholin-4-yl-ethoxy)-3H-imidazo[4,5-c]pyridine]?
Answer: inhibition at 0.2 µM [1]: 99%; IC50 [2]: 4.2 nM

Question: With `Cn1nc(C(C)(C)C)c(C#N)c1-c1nc2cc(-c3ccccc3C(F)(F)F)nc(N3CCCCC3)c2[nH]1` [Compound 22, 3-tert-Butyl-1-methyl-5-[4-piperidin-1-yl-6-(2-trifluoromethyl-phenyl)-3H-imidazo[4,5-c]pyridine-2-yl]-1H-pyrazole-4-carbonitrile] as the compound, how does the inhibition at 0.2 µM [1] read?
Answer: 99%

Question: And the IC50 [2]?
Answer: 1.4 nM

Question: Which inhibition at 0.2 µM [1] does the source give for `CC(C)(C)c1cc(-c2nc3nc(-c4ccccc4F)ccc3[nH]2)on1` [Compound 30, 2-(3-tert-Butyl-isoxazol-5-yl)-5-(2-fluoro-phenyl)-1H-imidazo[4,5-b]pyridine] here?
Answer: 87%

Question: And the IC50 [2]?
Answer: 87 nM

Question: For `CC(C)Oc1nc(-c2ccccc2C(F)(F)F)cc2nc(-c3c(C#N)c(C(C)(C)C)nn3C)[nH]c12` [Compound 14, 3-tert-Butyl-5-[4-isopropoxy-6-(2-trifluoromethyl-phenyl)-3H-imidazo[4,5-c]pyridin-2-yl]-1-methyl-1H-pyrazole-4-carbonitrile benzenesulfonic acid salt], which inhibition at 0.2 µM [1] is on record?
Answer: 99%

Question: What about the IC50 [2] of the same compound?
Answer: 1.2 nM

Question: With `COc1nc(-c2ccccc2Cl)cc2nc(-c3c4c(nn3C)C3(CCCCC3)CC4)[nH]c12` [Compound 18, 2-(2-methyl-6,6-spirocyclohexyl-2,4,5,6-tetrahydro-cyclopenta-2H-pyrazol-3-yl)-4-methoxy-6-(2-chloro-phenyl)-3H-imidazo[4,5-c]pyridine] as the compound, how does the “% Inh @ 0.2 μM” value read?
Answer: 99%

Question: And the IC50?
Answer: 8.2 nM

Question: Which results are given for `CN(C)CCOc1nc(-c2ccccc2C(F)(F)F)cc2nc(-c3c(Cl)c(C(C)(C)C)nn3C)[nH]c12` [Compound 53, {2-[2-(5-tert-Butyl-4-chloro-2-methyl-2H-pyrazol-3-yl)-6-(2-trifluoromethyl-phenyl)-3H-imidazo[4,5-c]pyridin-4-yloxy]-ethyl}-dimethyl-amine]?
Answer: inhibition at 0.2 µM [1]: 99%; IC50 [2]: 27 nM

Question: With `COc1nc(-c2ccccc2Cl)cc2nc(-c3csc(C(C)C)c3)[nH]c12` [Compound 98, 6-(2-Chloro-phenyl)-2-(5-isopropyl-thiophen-3-yl)-4-methoxy-3H-imidazo[4,5-c]pyridine] as the compound, how does the inhibition at 0.2 µM [1] read?
Answer: 100%

Question: What about the IC50 [2] of the same compound?
Answer: 14 nM

Question: With `Cn1nc(C(C)(C)C)cc1-c1nc2cc(-c3ccccc3Cl)ncc2[nH]1` [Compound 41, 2-(5-tert-Butyl-2-methyl-2H-pyrazol-3-yl)-6-(2-chloro-phenyl)-3H-imidazo[4,5-c]pyridine hydrochloride] as the compound, how does the inhibition at 0.2 µM [1] read?
Answer: 94%

Question: What about the IC50 [2] of the same compound?
Answer: 51 nM

Question: Which results are given for `Cn1nc(C(C)(C)C)cc1-c1nc2nc(-c3ccccc3C(F)(F)F)cc(Cl)c2[nH]1` [Compound 6, 2-(5-tert-butyl-2-methyl-2H-pyrazol-3-yl)-7-chloro-5-(2-trifluoromethyl-phenyl)-1H-imidazo[4,5-b]pyridine sodium salt]?
Answer: inhibition at 0.2 µM [1]: 65%; IC50 [2]: 69 nM

Question: With `Cn1nc(C(C)(C)C)cc1-c1nc2nc(-c3ccccc3F)ccc2[nH]1` [Compound 36, 2-(5-tert-Butyl-2-methyl-2H-pyrazol-3-yl)-5-(2-fluoro-phenyl)-1H-imidazo[4,5-b]pyridine] as the compound, how does the inhibition at 0.2 µM [1] read?
Answer: 26%

Question: What does the source list for `CC(C)(C)c1cc(-c2nc3nc(-c4ccccc4C(F)(F)F)cc(Cl)c3[nH]2)on1` [Compound 7, 2-(3-tert-Butyl-isoxazol-5-yl)-7-chloro-5-(2-trifluoromethyl-phenyl)-1H-imidazo[4,5-b]pyridine]?
Answer: inhibition at 0.2 µM [1]: 99%; IC50 [2]: 38 nM

Question: Which inhibition at 0.2 µM [1] does the source give for `COc1c(C(C)(C)C)nn(C)c1-c1nc2cc(-c3ccccc3C(F)(F)F)nc(OC)c2[nH]1` [Compound 79, 2-(5-tert-Butyl-4-methoxy-2-methyl-2H-pyrazol-3-yl)-4-methoxy-6-(2-trifluoromethyl-phenyl)-3H-imidazo[4,5-c]pyridine methanesulfonic acid salt] here?
Answer: 101%

Question: What about the IC50 [2] of the same compound?
Answer: 20 nM

Question: For `CN1CCN(CCOc2nc(-c3ccccc3C(F)(F)F)cc3nc(-c4c(Cl)c(C(C)(C)C)nn4C)[nH]c23)CC1` [Compound 50, 2-(5-tert-Butyl-4-chloro-2-methyl-2H-pyrazol-3-yl)-4-[2-(4-methyl-piperazin-1-yl)-ethoxy]-6-(2-trifluoromethyl-phenyl)-3H-imidazo[4,5-c]pyridine], which inhibition at 0.2 µM [1] is on record?
Answer: 91%

Question: What about the IC50 [2] of the same compound?
Answer: 56 nM

Question: Which inhibition at 0.2 µM [3] does the source give for `Cn1nc(C(C)(C)C)c(Cl)c1-c1nc2nc(-c3ccccc3Cl)ccc2[nH]1` [Compound 23, 2-(5-tert-Butyl-4-chloro-2-methyl-2H-pyrazol-3-yl)-5-(2-chloro-phenyl)-1H-imidazo[4,5-b]pyridine hydrochloride] here?
Answer: 96%

Question: `CN1CCN(c2nc(-c3ccccc3C(F)(F)F)cc3nc(-c4c(C#N)c(C(C)(C)C)nn4C)[nH]c23)CC1` [Compound 24, 3-tert-Butyl-1-methyl-5-[4-(4-methyl-piperazin-1-yl)-6-(2-trifluoromethyl-phenyl)-3H-imidazo[4,5-c]pyridin-2-yl]-1H-pyrazole-4-carbonitrile methanesulfonic acid salt] was tested. Which inhibition at 0.2 µM [3] did it give?
Answer: 99%

Question: And the IC50 [2]?
Answer: 7.4 nM

Question: `CC(C)Oc1nc(-c2ccccc2F)cc2nc(-c3c(Cl)c(C(C)(C)C)nn3C)[nH]c12` [Compound 92, 2-(5-tert-Butyl-4-chloro-2-methyl-2H-pyrazol-3-yl)-6-(2-fluorophenyl)-4-isopropoxy-3H-imidazo[4,5-c]pyridine sodium salt] was tested. Which inhibition at 0.2 µM [1] did it give?
Answer: 99%

Question: And the IC50 [2]?
Answer: 2.8 nM

Question: Which inhibition at 0.2 µM [1] does the source give for `Cn1nc(C(C)(C)C)c(C#N)c1-c1nc2cc(-c3ccccc3)ncc2[nH]1` [Compound 47, 3-tert-Butyl-1-methyl-5-(6-phenyl-3H-imidazo[4,5-c]pyridin-2-yl)-1H-pyrazole-4-carbonitrile hydrochloride] here?
Answer: 56%

Question: With `Cn1nc(C(C)(C)C)c(Cl)c1-c1nc2cc(-c3ccccc3Cl)nc(OCC(=O)O)c2[nH]1` [Compound 87, [2-(5-tert-Butyl-4-chloro-2-methyl-2H-pyrazol-3-yl)-6-(2-chloro-phenyl)-3H-imidazo[4,5-c]pyridin-4-yloxy]-acetic acid] as the compound, how does the inhibition at 0.2 µM [3] read?
Answer: 72%

Question: What about the IC50 [2] of the same compound?
Answer: 131 nM

Question: How did the inhibition at 0.2 µM [1] turn out when `COc1nc(-c2ccccc2Cl)cc2nc(-c3cc(C(C)(C)C)nn3C)[nH]c12` [Compound 12, 2-(5-tert-Butyl-2-methyl-2H-pyrazol-3-yl)-6-(2-chloro-phenyl)-4-methoxy-3H-imidazo[4,5-c]pyridine] was run?
Answer: 101%

Question: What about the IC50 [2] of the same compound?
Answer: 11 nM

Question: `Cn1nc(C(C)(C)C)c(Cl)c1-c1nc2cc(-c3ccccc3C(F)(F)F)nc(OCCN3CCCC3)c2[nH]1` [Compound 52, 2-(5-tert-Butyl-4-chloro-2-methyl-2H-pyrazol-3-yl)-4-(2-pyrrolidin-1-yl-ethoxy)-6-(2-trifluoromethyl-phenyl)-3H-imidazo[4,5-c]pyridine] was tested. Which inhibition at 0.2 µM [3] did it give?
Answer: 80%

Question: What about the IC50 [2] of the same compound?
Answer: 79 nM
